In PMC6321136, “Combined In Vitro Studies and in Silico Target Fishing for the Evaluation of the Biological Activities of Diphylleia cymosa and Podophyllum hexandrum” (Molecules, 2018):
Converted amounts (≈) assume the structure as drawn.

Key:
[1] = molecular target: T1, acetylcholinesterase enzyme (Electropardus electricous type VI-S) (Electrophorus electricus, UniProt O42275); assay: AChE bioautographic assay (TLC); format: biochemical; set-up: key: -: not active; +: slight inhibition; ++++: strong inhibition; settings: intensity of white bands
T1 construct: purchased Sigma-Aldrich, St. Louis, MO, USA type VI-S (catalogue number not given)
Description: The bioautographic assay was performed by thin layer chromatography (TLC) according to the method proposed by Marston, Kissling and Hostettman. The extracts were solubilized in methanol (Merck) at 20 mg/mL, and a portion of 10 μL of this solution was applied on a TLC plate (silica gel 60 F254, Merck, Darmstadt, Germany), which was eluted with CHCl3:MeOH (9:1). The acetylcholinesterase enzyme (Electropardus electricous type VI-S, Sigma-Aldrich, St. Louis, MO, USA) solution was prepared by diluting 1 KU of the enzyme in 30 mL of Tris/HCl buffer, pH 7.8, with the addition of 30 mg of bovine serum albumin (BSA). The enzyme solution was sprayed on the TLC plate and incubated in a humid chamber at 37 °C for 20 min. The substrate solution was prepared using 1-naphthyl acetate (2.5 mg/mL) and Fast Blue B salt (2.5 mg/mL), and sprayed on the TLC plate after the incubation period. […] The result was expressed by the intensity of the white bands observed.

[2] = molecular target: T2, AChE from Electropardus electricous type VI-S (Electrophorus electricus, UniProt O42275); assay: AChE inhibition microplate assay (Ellman); format: biochemical; settings: 400 μg/mL; read-out: Inhibition of AChE Microplate (%I)
T2 construct: purchased Sigma-Aldrich, St. Louis, MO, USA type VI-S (catalogue number not given)
Description: AChE inhibition assay was performed on a 96-well microplate according to Ellman’s method with adaptations. Initially, the extracts were solubilized on MeOH, at 20 mg/mL, and diluted to 4 mg/mL using Tris/HCl buffer solution (50 mM, pH 8.0). A portion of 25 µL of the samples (4 mg/mL) were added to the wells of the microplate, as well as 50 μL of 0.1% BSA solution in Tris/HCl Buffe (pH 8.0), 125 μL of DTNB in Tris/HCl (3 mM) containing NaCl (10 mM) and MgCl2 (20 mM). Subsequently, 25 μL of the ATCI aqueous solution (15 mM) was added to all wells. Then, a background reading was performed at 405 nm using microplate reader (Multiskan Go, Thermo Scientific, Whaltham, MA, USA). The enzymatic reaction was initiated after the addition of 25 µL of AChE solution (AChE from Electropardus electricous type VI-S, 0.2 U/mL, Sigma-Aldrich, St. Louis, MO, USA) in Tris/HCl buffer (50 mM, pH 8.0) containing 0.1% BSA. The kinetic cycle was performed in a period of 25 min, with readings at 5 min intervals, at 405 nm. Physostigmine (Eserine, Sigma, St. Louis, MO, USA) was employed as the positive control. […] The assay was performed in triplicate and the % of inhibition (%I) was calculated according to the following equation: %I = [(a − b)/a] × 100, where a = ΔA/min of control; b = ΔA/min of test sample; ΔA = change in absorbance between time x and time zero. […]

[3] = Thiobarbituric acid reactive substances (TBARS) assay; set-up: species or system bovine
Description: The evaluation of antioxidant activity using the TBARS assay, with adaptations. Briefly, the samples were solubilized in methanol (50.0 to 31.25 μg/mL) and a portion of 25 μL of each extract solution was added to 10 mL test tubes in triplicate (two reaction tubes and one control). The tubes corresponding to the blank, negative and positive controls were prepared by adding 25 μL of deionized water, MeOH or propylgalate (Sigma, St. Louis, MO, USA, 0.1 mM), respectively. The phospholipid liposomes were prepared using bovine brain extract type VII (Sigma Aldrich, St. Louis, MO, USA, 10 mg/mL) in phosphate buffered saline (PBS) solution. The suspension was subjected to an ultrasonic bath until the formation of the liposomes. […] The butanolic phase was removed and transferred to a 96-well microplate, and the absorbance was recorded on a Multiskan Go microplate reader (Thermo Scientific, Whaltham, MA, USA) at 532 nm. The percentage of inhibition (%I) of lipid peroxidation was calculated as: %I = ((AC − AS)/AC) × 100 where AC is the absorbance of control, AS is the absorbance of samples. Assays were performed in triplicate and IC50 values were determined by non-linear regression using GraphPad Prism, version 6.0 (GraphPad Software, San Diego, CA, USA). […]

[4] = DPPH radical scavenger activity
Description: The evaluation of the antioxidant activity using the 2,2-diphenyl-1-picrylhydrazyl radical (DPPH) was performed according to the method proposed by Mensor et al., with adaptations. The samples were dissolved in MeOH at concentrations ranging from 1.0 to 200 μg/mL. A portion of 250 μL of each sample was added to a 96-well microplate. MeOH and pyrogallol (50 µg/mL) were employed as negative and positive controls, respectively. Then, 100 μL of either MeOH (blank wells) or DPPH solution (120 μg/mL, reaction wells) was added to the microplate. The reading was performed on a microplate reader (EL808IU-Biotek model, Biotek, Winooski, VT, USA), at 5 min intervals for a total of 45 min, at 515 nm. The percentage of radical scavenging activity (%RSA) was calculated using the following equation: % RSA = ((AC − AS)/AC) × 100, where AC is the absorbance of control and AS is the absorbance of samples taken at 35 min. The results were expressed in EC50 (effective concentration for 50% capture of the radicals) determined by non-linear regression using GraphPad Prism, version 6.0.

[5] = β-Carotene/linoleic acid co-oxidation assay
Description: The evaluation of the antioxidant activity using the β-carotene/linoleic acid co-oxidation system was performed according to Duarte-Almeida et al., with adaptations. The extracts were solubilized in MeOH (2.2 mg/mL) and further diluted to concentrations ranging from 3.125 to 200 μg/mL. An aliquot of 25 μL of sample solutions were added in the 96-well microplate. 25 mg of linoleic acid and 100 mg Tween 20 (Sigma, St. Louis, MO, USA) were added to a round-bottom flask containing 1 mL of a β-carotene solution (1 mg/mL, Sigma, St. Louis, MO, USA) in chloroform. The latter was removed in a rotatory evaporator and, then, 50 mL of aerated water was added to the flask, affording the β-carotene emulsion. Portions of 250 μL of the freshly prepared emulsion were added to the wells corresponding to the odd columns of a microplate. […] Readings were performed immediately at 470 nm. After the first reading, the microplate was incubated at 45 °C and the kinetic cycle was performed with readings at 15 min intervals for a total of 120 min. The antioxidant activity was expressed as % of inhibition of lipid peroxidation (%I), using the formula (I% = Ac (initial abs − Final abs) − Aam (final abs − Initial abs)/Ac × 100). Assays were performed in triplicate and IC50 values were determined by non-linear regression using GraphPad Prism, version 6.0 (GraphPad Software, San Diego, CA, USA).

AChE [6] = system: AChE; set-up: method as in Itoh et al. [85]; settings: 3 mg/kg; ref Itoh et al. [85]; cited from earlier work
AChE [7] = system: AChE; set-up: method as in El-Hassan et al. [86]; settings: ref El-Hassan et al. [86]; cited from earlier work

T2 sequence (O42275 24-633): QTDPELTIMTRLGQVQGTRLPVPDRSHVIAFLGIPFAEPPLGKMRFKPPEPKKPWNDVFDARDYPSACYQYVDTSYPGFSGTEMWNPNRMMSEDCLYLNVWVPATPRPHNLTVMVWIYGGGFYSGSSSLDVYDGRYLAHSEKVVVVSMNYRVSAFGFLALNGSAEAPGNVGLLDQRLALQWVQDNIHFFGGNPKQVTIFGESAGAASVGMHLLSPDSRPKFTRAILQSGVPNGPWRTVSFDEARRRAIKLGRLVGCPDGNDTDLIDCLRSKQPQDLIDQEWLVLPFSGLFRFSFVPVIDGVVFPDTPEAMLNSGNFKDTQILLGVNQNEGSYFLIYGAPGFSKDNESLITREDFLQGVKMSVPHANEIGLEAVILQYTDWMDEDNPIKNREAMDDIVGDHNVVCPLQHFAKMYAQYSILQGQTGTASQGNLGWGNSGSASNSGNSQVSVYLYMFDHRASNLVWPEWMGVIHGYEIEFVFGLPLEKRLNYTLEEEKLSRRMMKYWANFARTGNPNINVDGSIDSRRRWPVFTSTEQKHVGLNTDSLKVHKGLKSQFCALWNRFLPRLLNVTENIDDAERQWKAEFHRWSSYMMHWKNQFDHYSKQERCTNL
T1 sequence (O42275 24-633): as above

Compound: CNC(=O)Oc1ccc2c(c1)[C@]1(C)CCN(C)[C@@H]1N2C [Physostigmine, reference compound]
- Inhibition of AChE TLC [1]: ++++
- inhibition at 400 µg/mL [2]: 89.8 ± 1.16%

Compound: CCCOC(=O)c1cc(O)c(O)c(O)c1 [Propylgalate, propylgalate, reference compound]
- Antioxidant Activity (IC50-µg/mL) TBARS Assay [3]: <20 µg/mL

Compound: Oc1cccc(O)c1O [Pyrogallol, pyrogallol, reference compound]
- Antioxidant Activity (IC50-µg/mL) DPPH Radical Sequestration [4]: 1.14 ± 0.15 µg/mL

Compound: O=c1c(O)c(-c2ccc(O)c(O)c2)oc2cc(O)cc(O)c12 [Quercetin, quercetin, reference compound]
- Antioxidant Activity (IC50-µg/mL) β-Carotene/linoleic Acid [5]: 0.3 ± 0.1 µg/mL

Compound: COc1cc2c(c(OC)c1OC)-c1c(cc(OC)c(OC)c1OC)C[C@](C)(O)[C@@H](C)C2 [Schisandrin]
- activity in vivo (AChE [6]): active

Compound: COc1cc([C@H]2OC[C@H]3[C@@H]2CO[C@@H]3c2cc(OC)c(O)c(OC)c2)cc(OC)c1O [Syringaresinol]
- IC50 AChE inhibition in vitro (AChE [7]): 200 µg/mL (≈ 478 µM)
